Experimental data: patent publication US12275731B2, “Azaindole inhibitors of wild-type and mutant forms of LRRK2” (DANA-FARBER CANCER INSTITUTE, INC., priority 2018, dated 2025)

Tests used:
Assay in all cases: KinomeScan profiling
Format in all cases: binding
[1] = biological target: T1, AURKC (Homo sapiens, UniProt Q9UQB9); conditions: read-out: % control
T1 construct: purchased KinomeScan®
T1 sequence (Q9UQB9 1-309): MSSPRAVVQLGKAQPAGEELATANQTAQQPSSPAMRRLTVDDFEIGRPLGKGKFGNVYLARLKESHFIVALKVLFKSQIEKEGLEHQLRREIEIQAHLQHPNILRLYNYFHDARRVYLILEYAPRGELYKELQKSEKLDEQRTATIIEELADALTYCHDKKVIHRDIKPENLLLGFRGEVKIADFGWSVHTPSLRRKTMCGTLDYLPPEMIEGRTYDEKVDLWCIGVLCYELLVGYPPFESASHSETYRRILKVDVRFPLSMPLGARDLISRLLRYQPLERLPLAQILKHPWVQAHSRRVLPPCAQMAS
In short: (§1)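 Percent-of-control values derive from RLU, calculated as (test − positive)/(negative − positive) × 100, where DMSO defines 100% and a positive control compound defines 0%. Each compound was tested at 1 μM in the 468-kinase panel; sub-35% readings indicate activity.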

[2] = biological target: T2, BMPR2 (Homo sapiens, UniProt Q13873); conditions: BMPR2, 1 μM; read-out: % control
T2 construct: purchased KinomeScan®
T2 sequence (Q13873 27-1038): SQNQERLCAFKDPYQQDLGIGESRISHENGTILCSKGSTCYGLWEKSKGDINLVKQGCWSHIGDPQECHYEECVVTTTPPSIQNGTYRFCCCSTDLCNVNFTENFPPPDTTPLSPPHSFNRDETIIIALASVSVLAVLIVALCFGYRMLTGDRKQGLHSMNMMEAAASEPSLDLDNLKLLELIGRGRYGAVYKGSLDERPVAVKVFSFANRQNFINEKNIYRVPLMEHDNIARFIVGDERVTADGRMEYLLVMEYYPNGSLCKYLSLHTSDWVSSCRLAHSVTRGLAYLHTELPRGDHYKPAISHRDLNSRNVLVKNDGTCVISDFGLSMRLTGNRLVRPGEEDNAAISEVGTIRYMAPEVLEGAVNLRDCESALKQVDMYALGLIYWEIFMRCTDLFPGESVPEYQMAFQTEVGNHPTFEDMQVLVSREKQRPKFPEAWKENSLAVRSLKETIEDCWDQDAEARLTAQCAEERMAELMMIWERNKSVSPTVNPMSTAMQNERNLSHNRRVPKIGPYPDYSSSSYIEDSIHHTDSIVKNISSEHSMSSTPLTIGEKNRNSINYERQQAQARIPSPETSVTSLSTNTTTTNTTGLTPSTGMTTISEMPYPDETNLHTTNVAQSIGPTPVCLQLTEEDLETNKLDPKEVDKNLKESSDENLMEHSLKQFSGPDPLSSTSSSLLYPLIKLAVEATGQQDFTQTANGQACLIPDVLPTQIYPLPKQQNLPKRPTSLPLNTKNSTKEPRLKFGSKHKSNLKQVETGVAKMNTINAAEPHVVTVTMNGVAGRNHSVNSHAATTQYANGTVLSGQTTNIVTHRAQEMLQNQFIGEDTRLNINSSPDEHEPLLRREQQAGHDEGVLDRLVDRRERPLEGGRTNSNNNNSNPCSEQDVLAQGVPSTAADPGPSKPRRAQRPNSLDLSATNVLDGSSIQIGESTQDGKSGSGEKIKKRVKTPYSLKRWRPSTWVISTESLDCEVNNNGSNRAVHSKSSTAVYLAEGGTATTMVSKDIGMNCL
In short: as §1

[3] = biological target: CAMK1D (Homo sapiens, UniProt Q8IU85); conditions: read-out: % control
Chain of CAMK1D (Q8IU85 whole entry): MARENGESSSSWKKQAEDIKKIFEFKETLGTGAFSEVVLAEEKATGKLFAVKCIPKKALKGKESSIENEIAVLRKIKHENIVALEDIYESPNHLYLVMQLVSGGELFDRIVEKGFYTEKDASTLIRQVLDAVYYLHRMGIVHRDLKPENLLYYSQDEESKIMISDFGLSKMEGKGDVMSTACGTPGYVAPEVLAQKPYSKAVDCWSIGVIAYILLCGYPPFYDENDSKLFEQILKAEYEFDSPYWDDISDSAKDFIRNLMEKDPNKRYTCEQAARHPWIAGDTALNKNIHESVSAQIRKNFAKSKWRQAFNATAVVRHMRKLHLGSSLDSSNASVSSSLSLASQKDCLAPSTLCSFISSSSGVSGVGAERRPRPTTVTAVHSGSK
In short: as §1

[4] = biological target: CAMK2A (Homo sapiens, UniProt Q9UQM7); conditions: read-out: % control
Chain of CAMK2A (Q9UQM7 whole entry): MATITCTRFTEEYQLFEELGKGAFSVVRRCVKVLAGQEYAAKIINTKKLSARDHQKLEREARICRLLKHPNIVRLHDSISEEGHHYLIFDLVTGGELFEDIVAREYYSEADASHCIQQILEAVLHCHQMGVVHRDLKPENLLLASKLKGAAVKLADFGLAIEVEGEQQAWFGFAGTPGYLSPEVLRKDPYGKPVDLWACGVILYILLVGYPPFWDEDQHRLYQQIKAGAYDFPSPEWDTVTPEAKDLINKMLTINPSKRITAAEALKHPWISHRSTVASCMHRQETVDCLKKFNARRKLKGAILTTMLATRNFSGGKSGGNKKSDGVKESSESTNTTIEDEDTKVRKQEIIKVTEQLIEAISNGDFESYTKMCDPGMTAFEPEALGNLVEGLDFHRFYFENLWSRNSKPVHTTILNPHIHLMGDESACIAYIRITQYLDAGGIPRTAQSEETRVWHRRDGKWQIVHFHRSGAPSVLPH
In short: as §1

[5] = biological target: CDK3 (Homo sapiens, UniProt Q00526); conditions: CDK3, 1 μM; read-out: % control
Chain of CDK3 (Q00526 whole entry): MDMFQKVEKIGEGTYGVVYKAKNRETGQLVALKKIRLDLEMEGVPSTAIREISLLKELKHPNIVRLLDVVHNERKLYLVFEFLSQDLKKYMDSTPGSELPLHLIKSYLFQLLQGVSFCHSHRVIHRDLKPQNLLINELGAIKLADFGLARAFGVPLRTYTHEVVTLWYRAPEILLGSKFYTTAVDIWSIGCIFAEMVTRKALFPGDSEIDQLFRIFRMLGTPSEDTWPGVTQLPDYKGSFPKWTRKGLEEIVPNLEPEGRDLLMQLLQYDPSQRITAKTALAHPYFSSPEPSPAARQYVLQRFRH
In short: as §1

[6] = biological target: CSNK2A1 (Homo sapiens, UniProt P68400); conditions: CSNK2A1, 1 μM; read-out: % control
Chain of CSNK2A1 (P68400 whole entry): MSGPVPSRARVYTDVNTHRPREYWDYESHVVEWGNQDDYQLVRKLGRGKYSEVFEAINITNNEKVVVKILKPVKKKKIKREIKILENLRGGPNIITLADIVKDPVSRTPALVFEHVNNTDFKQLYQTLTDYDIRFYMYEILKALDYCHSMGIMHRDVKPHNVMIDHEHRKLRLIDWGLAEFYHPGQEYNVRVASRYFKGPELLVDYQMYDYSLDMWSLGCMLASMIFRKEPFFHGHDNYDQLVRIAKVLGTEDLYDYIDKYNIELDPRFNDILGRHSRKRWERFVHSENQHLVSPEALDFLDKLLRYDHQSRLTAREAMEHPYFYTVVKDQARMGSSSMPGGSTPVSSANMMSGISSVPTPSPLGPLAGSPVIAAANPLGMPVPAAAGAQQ
In short: as §1

[7] = biological target: MINK (Homo sapiens, UniProt Q8N4C8); conditions: read-out: % control
Chain of MINK (Q8N4C8 whole entry): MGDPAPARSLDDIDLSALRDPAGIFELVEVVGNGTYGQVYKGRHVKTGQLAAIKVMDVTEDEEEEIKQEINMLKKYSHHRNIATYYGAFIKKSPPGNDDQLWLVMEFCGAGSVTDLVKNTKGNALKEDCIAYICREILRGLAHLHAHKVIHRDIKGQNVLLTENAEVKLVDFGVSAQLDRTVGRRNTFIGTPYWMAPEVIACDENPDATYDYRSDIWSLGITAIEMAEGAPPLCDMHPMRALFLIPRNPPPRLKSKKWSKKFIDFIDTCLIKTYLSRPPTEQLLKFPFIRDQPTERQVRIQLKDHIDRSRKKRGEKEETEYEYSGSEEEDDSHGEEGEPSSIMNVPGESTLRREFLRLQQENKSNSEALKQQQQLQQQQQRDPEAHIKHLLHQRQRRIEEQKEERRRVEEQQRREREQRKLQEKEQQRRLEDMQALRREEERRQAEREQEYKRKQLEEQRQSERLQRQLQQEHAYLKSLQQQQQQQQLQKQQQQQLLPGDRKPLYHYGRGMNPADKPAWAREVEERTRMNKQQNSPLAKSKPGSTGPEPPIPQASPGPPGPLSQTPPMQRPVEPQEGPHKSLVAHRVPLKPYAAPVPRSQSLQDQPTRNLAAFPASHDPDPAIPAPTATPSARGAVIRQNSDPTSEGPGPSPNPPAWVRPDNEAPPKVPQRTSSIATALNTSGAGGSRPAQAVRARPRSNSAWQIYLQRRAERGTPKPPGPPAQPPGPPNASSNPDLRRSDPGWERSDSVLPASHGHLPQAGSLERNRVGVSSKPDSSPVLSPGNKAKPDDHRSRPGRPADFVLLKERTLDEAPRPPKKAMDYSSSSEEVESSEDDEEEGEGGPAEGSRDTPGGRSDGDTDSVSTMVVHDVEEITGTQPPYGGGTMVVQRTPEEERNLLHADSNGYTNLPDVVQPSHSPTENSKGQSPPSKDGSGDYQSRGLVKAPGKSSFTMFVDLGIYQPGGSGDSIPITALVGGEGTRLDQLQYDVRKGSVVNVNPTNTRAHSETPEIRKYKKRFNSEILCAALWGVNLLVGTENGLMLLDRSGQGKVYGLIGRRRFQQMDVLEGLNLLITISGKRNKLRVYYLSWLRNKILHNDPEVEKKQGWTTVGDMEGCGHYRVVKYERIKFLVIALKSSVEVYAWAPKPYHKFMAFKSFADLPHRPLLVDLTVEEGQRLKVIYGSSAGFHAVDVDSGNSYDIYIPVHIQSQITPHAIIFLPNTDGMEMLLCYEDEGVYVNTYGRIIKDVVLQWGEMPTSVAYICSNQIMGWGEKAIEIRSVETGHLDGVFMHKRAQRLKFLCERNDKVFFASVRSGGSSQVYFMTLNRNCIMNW
In short: as §1

[8] = biological target: T3, PIP5K2B (Homo sapiens, UniProt P78356); conditions: read-out: % control
T3 construct: purchased KinomeScan® (panel service)
T3 sequence (P78356 1-416): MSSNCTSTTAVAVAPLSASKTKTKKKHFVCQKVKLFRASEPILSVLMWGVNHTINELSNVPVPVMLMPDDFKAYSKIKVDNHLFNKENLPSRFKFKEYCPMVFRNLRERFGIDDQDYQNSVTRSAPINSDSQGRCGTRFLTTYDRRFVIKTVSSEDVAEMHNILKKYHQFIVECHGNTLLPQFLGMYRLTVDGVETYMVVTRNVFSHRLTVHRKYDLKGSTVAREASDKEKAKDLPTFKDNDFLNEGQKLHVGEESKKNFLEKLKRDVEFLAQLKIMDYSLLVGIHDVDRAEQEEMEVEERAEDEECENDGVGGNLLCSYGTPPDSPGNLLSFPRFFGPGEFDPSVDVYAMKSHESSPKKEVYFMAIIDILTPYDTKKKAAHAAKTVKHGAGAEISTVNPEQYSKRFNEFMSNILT
In short: as §1

[9] = biological target: RET(V804L) (Homo sapiens, UniProt P07949, V804L); conditions: read-out: % control
Chain of RET(V804L) (P07949 29-1114 V804L): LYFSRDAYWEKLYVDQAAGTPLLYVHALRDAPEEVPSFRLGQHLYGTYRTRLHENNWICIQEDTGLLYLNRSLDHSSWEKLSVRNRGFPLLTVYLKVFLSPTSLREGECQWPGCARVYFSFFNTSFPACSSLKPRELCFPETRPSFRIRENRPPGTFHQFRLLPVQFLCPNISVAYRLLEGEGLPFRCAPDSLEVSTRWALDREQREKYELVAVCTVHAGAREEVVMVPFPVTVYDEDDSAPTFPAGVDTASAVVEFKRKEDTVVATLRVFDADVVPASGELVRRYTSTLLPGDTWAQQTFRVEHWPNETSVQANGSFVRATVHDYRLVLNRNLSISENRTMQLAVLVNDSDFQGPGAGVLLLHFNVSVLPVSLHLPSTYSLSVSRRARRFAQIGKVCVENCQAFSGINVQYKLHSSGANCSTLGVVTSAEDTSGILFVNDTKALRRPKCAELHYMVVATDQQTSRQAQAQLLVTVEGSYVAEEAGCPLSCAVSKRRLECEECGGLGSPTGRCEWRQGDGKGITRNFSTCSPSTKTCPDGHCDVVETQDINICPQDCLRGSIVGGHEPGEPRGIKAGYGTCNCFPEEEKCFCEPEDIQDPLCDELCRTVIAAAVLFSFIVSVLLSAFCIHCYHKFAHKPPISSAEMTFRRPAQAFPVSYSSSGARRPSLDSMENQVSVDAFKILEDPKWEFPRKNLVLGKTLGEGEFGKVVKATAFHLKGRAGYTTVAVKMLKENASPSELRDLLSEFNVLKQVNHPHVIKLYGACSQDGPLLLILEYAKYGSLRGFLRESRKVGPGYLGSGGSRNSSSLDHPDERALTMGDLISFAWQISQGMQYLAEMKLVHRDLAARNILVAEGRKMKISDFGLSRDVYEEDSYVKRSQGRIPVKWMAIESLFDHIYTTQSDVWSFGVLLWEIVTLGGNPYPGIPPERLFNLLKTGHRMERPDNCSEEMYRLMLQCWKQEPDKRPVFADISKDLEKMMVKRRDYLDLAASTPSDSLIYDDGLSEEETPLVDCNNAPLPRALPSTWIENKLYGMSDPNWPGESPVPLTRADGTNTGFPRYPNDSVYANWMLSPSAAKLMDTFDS
In short: as §1

CNc1c(-c2ccc(C(=O)N3CCC(N4CCOCC4)CC3)cc2)cnc2[nH]cc(Cl)c12 [Compound 96, (4-(3-chloro-4-(methylamino)-1H-pyrrolo[2,3-b]pyridin-5-yl)phenyl)(4-morpholinopiperidin-1-yl)methanone]
remaining binding at 1 µM [1]: 49% | remaining binding at 1 µM [2]: 53% | remaining binding at 1 µM [3]: 69% | remaining binding at 1 µM [4]: 96% | remaining binding at 1 µM [5]: 89% | remaining binding at 1 µM [6]: 72% | remaining binding at 1 µM [7]: 6% | remaining binding at 1 µM [8]: 4.9% | remaining binding at 1 µM [9]: 59%

O=C(c1ccc(-c2cnc3[nH]cc(Cl)c3c2NC2CCCC2)cc1)N1CCC(N2CCOCC2)CC1 [Compound 101, (4-(3-chloro-4-(cyclopentylamino)-1H-pyrrolo[2,3-b]pyridin-5-yl)phenyl)(4-morpholinopiperidin-1-yl)methanone]
remaining binding at 1 µM [1]: 71% | remaining binding at 1 µM [2]: 98% | remaining binding at 1 µM [3]: 100% | remaining binding at 1 µM [4]: 92% | remaining binding at 1 µM [5]: 97% | remaining binding at 1 µM [6]: 100% | remaining binding at 1 µM [7]: 62% | remaining binding at 1 µM [8]: 12% | remaining binding at 1 µM [9]: 97%

CNc1c(-c2cnn([C@H]3CCN(C(C)=O)C[C@@H]3F)c2)cnc2[nH]cc(Cl)c12 [Compound 77, 1-((3S,4S)-4-(4-(3-chloro-4-(methylamino)-1H-pyrrolo[2,3-b]pyridin-5-yl)-1H-pyrazol-1-yl)-3-fluoropiperidin-1-yl)ethan-1-one]
remaining binding at 1 µM [1]: 26% | remaining binding at 1 µM [2]: 40% | remaining binding at 1 µM [3]: 85% | remaining binding at 1 µM [4]: 100% | remaining binding at 1 µM [5]: 95% | remaining binding at 1 µM [6]: 75% | remaining binding at 1 µM [7]: 17% | remaining binding at 1 µM [8]: 3.4% | remaining binding at 1 µM [9]: 45%
